Test results taken from ChEMBL document CHEMBL1150266, “Design and synthesis of conformationally constrained glucagon-like peptide-1 derivatives with increased plasma stability and prolonged in vivo activity” (J Med Chem, 2008).

Key:
[1] = Stability in human plasma at 1000 ng/mL at 37 degC after 5 hrs; type: ADME, cell-free; conditions: read-out: Stability
Plasma = test: (§1) Stability in human plasma at 1000 ng/mL at 37 degC; type: ADME, cell-free
[2] = target: T1, Glucagon-like peptide 1 receptor (Homo sapiens, UniProt P43220); test: Agonist activity at human GLP1R expressed in CHO cells assessed as increase in cAMP level by cAMP-response element/luciferase activation assay; type: functional, cell-based
T1 sequence (P43220 whole entry): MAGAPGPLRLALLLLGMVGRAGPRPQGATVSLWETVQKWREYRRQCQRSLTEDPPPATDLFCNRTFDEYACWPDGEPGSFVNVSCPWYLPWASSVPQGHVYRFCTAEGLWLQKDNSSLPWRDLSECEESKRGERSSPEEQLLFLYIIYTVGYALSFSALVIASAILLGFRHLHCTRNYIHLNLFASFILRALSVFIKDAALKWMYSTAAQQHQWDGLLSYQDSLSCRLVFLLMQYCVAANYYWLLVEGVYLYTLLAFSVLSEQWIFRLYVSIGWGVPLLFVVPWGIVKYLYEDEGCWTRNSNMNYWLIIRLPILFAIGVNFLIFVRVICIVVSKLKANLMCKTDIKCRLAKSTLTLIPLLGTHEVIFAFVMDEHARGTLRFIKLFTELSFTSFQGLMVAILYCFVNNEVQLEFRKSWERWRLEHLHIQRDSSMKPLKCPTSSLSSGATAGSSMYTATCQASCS

[3] = target: T1, Glucagon-like peptide 1 receptor; test: Displacement of [125I]GLP1 from human GLP1R expressed in CHOK1 cells; type: cell-based, CHO-K1
[4] = as §1; type: ADME, cell-free

Row | half-life at 1000 ng/mL [4] [h] | Compound | remaining at 5 h, 1000 ng/mL [1] [%] | Stability (Plasma) | EC50 [2] [nM] | IC50 [3] [nM]
1 | – | CC[C@H](C)[C@H](NC(=O)[C@H](Cc1ccccc1)NC(=O)[C@H](CCC(=O)O)NC(=O)[C@@H]1CCCCNC(=O)CC[C@H](NC(=O)[C@H](CCC(=O)O)NC(=O)[C@H](CC(C)C)NC(=O)[C@H](Cc2ccc(O)cc2)NC(=O)[C@H](CO)NC(=O)[C@H](CO)NC(=O)[C@@H](NC(=O)[C@H](CC(=O)O)NC(=O)[C@H](CO)NC(=O)[C@@H](NC(=O)[C@H](Cc2ccccc2)NC(=O)[C@@H](NC(=O)CNC(=O)[C@H](CCC(=O)O)NC(=O)CNC(=O)[C@@H](N)Cc2c[nH]cn2)[C@@H](C)O)[C@@H](C)O)C(C)C)C(=O)N[C@@H](CCC(N)=O)C(=O)N[C@@H](C)C(=O)N[C@@H](C)C(=O)N1)C(=O)N[C@@H](C)C(=O)N[C@@H](Cc1c[nH]c2ccccc12)C(=O)N[C@@H](CC(C)C)C(=O)N[C@H](C(=O)N[C@@H](CCCCN)C(=O)NCC(=O)N[C@@H](CCCNC(=N)N)C(=O)NCC(N)=O)C(C)C | 75 | Stable | 0.01 | 2.1
2 | 5 | CC[C@H](C)[C@H](NC(=O)[C@H](Cc1ccccc1)NC(=O)[C@H](CCC(=O)O)NC(=O)[C@H](CCCCN)NC(=O)[C@H](C)NC(=O)[C@H](C)NC(=O)[C@H](CCC(N)=O)NC(=O)CNC(=O)[C@H](CCC(=O)O)NC(=O)[C@H](CC(C)C)NC(=O)[C@H](Cc1ccc(O)cc1)NC(=O)[C@H](CO)NC(=O)[C@H](CO)NC(=O)[C@@H](NC(=O)[C@H](CC(=O)O)NC(=O)[C@H](CO)NC(=O)[C@@H](NC(=O)[C@H](Cc1ccccc1)NC(=O)[C@@H](NC(=O)CNC(=O)[C@H](CCC(=O)O)NC(=O)CNC(=O)[C@@H](N)Cc1cnc[nH]1)[C@@H](C)O)[C@@H](C)O)C(C)C)C(=O)N[C@@H](C)C(=O)N[C@@H](Cc1c[nH]c2ccccc12)C(=O)N[C@@H](CC(C)C)C(=O)N[C@H](C(=O)N[C@@H](CCCCN)C(=O)NCC(=O)N[C@@H](CCCNC(=N)N)C(=O)NCC(=O)O)C(C)C | – | – | – | –
3 | 0.5 | CC[C@H](C)[C@H](NC(=O)[C@H](Cc1ccccc1)NC(=O)[C@H](CCC(=O)O)NC(=O)[C@H](CCCCN)NC(=O)[C@H](C)NC(=O)[C@H](C)NC(=O)[C@H](CCC(N)=O)NC(=O)CNC(=O)[C@H](CCC(=O)O)NC(=O)[C@H](CC(C)C)NC(=O)[C@H](Cc1ccc(O)cc1)NC(=O)[C@H](CO)NC(=O)[C@H](CO)NC(=O)[C@@H](NC(=O)[C@H](CC(=O)O)NC(=O)[C@H](CO)NC(=O)[C@@H](NC(=O)[C@H](Cc1ccccc1)NC(=O)[C@@H](NC(=O)CNC(=O)[C@H](CCC(=O)O)NC(=O)[C@H](C)NC(=O)[C@@H](N)Cc1cnc[nH]1)[C@@H](C)O)[C@@H](C)O)C(C)C)C(=O)N[C@@H](C)C(=O)N[C@@H](Cc1c[nH]c2ccccc12)C(=O)N[C@@H](CC(C)C)C(=O)N[C@H](C(=O)N[C@@H](CCCCN)C(=O)NCC(=O)N[C@@H](CCCNC(=N)N)C(=O)NCC(N)=O)C(C)C | – | – | – | –
